Experimental data as given in US20080193376A1, “Methods of Enhanced Detection and Therapy of Inflamed Tissues Using Immune Modulation” (priority 2004, published 2008).

System: atherosclerotic plaques
Assay: Intravascular catheter beta probe detection of FDG in rabbit aorta
Assay type: in vivo, New Zealand white rabbits
Source text: Male New Zealand white rabbits ranging from 2.5 to 3.0 kilograms in weight (Charles River Breeding Lab) were maintained on a 2% cholesterol-6% peanut oil diet (ICN) for 10 weeks. After 1 week on the peanut oil diet, the abdominal aorta was denuded of endothelium by a modified Baumgartner technique. Briefly, each animal was anesthetized with a mixture of ketamine and xylazine and the right femoral artery was isolated. Subsequently, a 4 F Fogarty embolectomy catheter was introduced via arteriotomy and advanced under fluoroscopic guidance to the level of the diaphragm. The balloon was then inflated to 3 psi (pounds per square inch) above balloon inflation pressure and three passes were made down the abdominal aorta with the inflated catheter. […]
Additionally, FDG was administered intravenously to two additional rabbits. […] Aortic segments at previously assessed sites of plaque and control areas were excised and examined for uptake of FDG by standard well counting.
Sensitivity of the probe was 850±11 cps/μCi (mean±SD). Catheter-determined activity correlated well with well counting measurements, (r=0.89, P<0.001, FIG. 3). Moreover, atherosclerotic regions were readily distinguished from control by catheter mounted beta probe, (11.9±2.1 [n=9, range 9.7±15.3] vs. 4.8±1.9[n=14, range 1.3±7.3], cps in atherosclerotic vs. control regions, respectively, P<0.001; FIG. 4).

FDG activity by catheter mounted beta probe (atherosclerotic regions, n=9, FDG intravenously): 11.9±2.1 cps | FDG activity by catheter mounted beta probe (control regions, n=14, FDG intravenously): 4.8±1.9 cps
Compound: OC[C@H]1OC(O)[C@H]([18F])[C@@H](O)[C@@H]1O (some centres unmarked) [FDG, ^18F-Fluorodeoxyglucose]
